Laboratory results reported in US10517851B2, “Vasopressin-like action enhancer” (KYORIN PHARMACEUTICAL CO., LTD., priority 2015, dated 2019).

Tests used:
[1] = system: female rats; assay: Effect of mozavaptan (V2 antagonist) on antidiuretic action in water-loaded rats; assay type: in vivo, rat
Experimental: The method according to Watanabe et al. (Watanabe et al 2013 Antidiuretic effect of antimuscanrinic agents in rat model depends on C-fibre afferent nerves in the bladder. BJU Int 112(1) 131-6) was carried out with a partial modification. Female rats (10 to 11-week-old, obtained from Charles River Laboratories Japan) were intravenously administered with a vehicle (dimethylformamide or saline); mozavaptan (a dose of 0.1 mL/kg of a 30 mg/mL solution); 3 mg/kg of mozavaptan and imidafenacin (10 μg/kg or 300 μg/kg); 3 mg/kg of mozavaptan and desmopressin (0.003 μg/kg or 0.1 μg/kg); or 3 mg/kg of mozavaptan, imidafenacin (10 μg/kg or 300 μg/kg) and desmopressin (0.003 μg/kg or 0.1 μg/kg), and subjected to an oral water load (25 mL/kg). After the rats were transferred to Bollmann cages, urine was collected for 2 hours from each rat via a catheter previously inserted and fixed to the bladder apex of the rat (8 rats in each group).

[2] = system: female rats; assay: Antidiuretic action in water-loaded rats, urine collected for 2 hours (single agent); assay type: in vivo, rat; conditions: oral water load 25 mL/kg, FIG. 1 / FIG. 2; for antidiuretic action: intravenous dose series; for reduction of the urinary volume at the maximum: intravenous
Experimental: A method according to Watanabe et al. (Watanabe et al 2013 Antidiuretic effect of antimuscanrinic agents in rat model depends on C-fibre afferent nerves in the bladder. BJU Int 112(1) 131-6) was carried out with a partial modification. Female rats (10 to 11-week-old, obtained from Charles River Laboratories Japan) were intravenously administered (1 mL/kg) with a vehicle (saline) or imidafenacin ([…]) and subjected to an oral water load (25 mL/kg). After the rats were transferred to Bollmann cages, urine was collected for 2 hours from each rat via a catheter previously inserted and fixed to the bladder apex of the rat (8 rats in each group). The method according to Watanabe et al. (Watanabe et al 2013 Antidiuretic effect of antimuscanrinic agents in rat model depends on C-fibre afferent nerves in the bladder. BJU Int 112(1) 131-6) was carried out with a partial modification. Female rats (10 to 11-week-old, obtained from Charles River Laboratories Japan) were intravenously administered (1 mL/kg) with a vehicle (saline) or desmopressin ([…]) and subjected to an oral water load (25 mL/kg). After the rats were transferred to Bollmann cages, urine was collected for 2 hours from each rat via a catheter previously inserted and fixed to the bladder apex of the rat (8 rats in each group).

[3] = system: vasopressin; conditions: rat; previous report BJU Int 112(1) 131-6; cited from earlier work

SMILES	antidiuretic action of desmopressin at the maximum reaction dose in the presence of mozavaptan ([1]; desmopressin 0.1 μg/kg with 3 mg/kg of mozavaptan, intravenous, FIG. 4)	antidiuretic action of desmopressin in the presence of mozavaptan ([1]; desmopressin with 3 mg/kg of mozavaptan, intravenous, FIG. 4)	antidiuretic action [2]	reduction of the urinary volume at the maximum [2]	antidiuretic action on addition of imidafenacin to the mozavaptan and desmopressin group ([1]; imidafenacin 300 μg/kg added to 3 mg/kg mozavaptan and 0.1 μg/kg desmopressin, FIG. 5)	antidiuretic action of imidafenacin in the presence of mozavaptan ([1]; imidafenacin at the maximum reaction dose of 300 μg/kg with 3 mg/kg of mozavaptan, intravenous, FIG. 4)	release of vasopressin [3]
NC(=O)CC[C@@H]1NC(=O)[C@H](Cc2ccccc2)NC(=O)[C@H](Cc2ccc(O)cc2)NC(=O)CCSSC[C@@H](C(=O)N2CCC[C@H]2C(=O)N[C@H](CCCN=C(N)N)C(=O)NCC(N)=O)NC(=O)[C@H](CC(N)=O)NC1=O [desmopressin]	recovered	also suppressed	dose-dependent manner	about 100%	–	–	–
Cc1nccn1CCC(C(N)=O)(c1ccccc1)c1ccccc1 [imidafenacin]	–	–	dose-dependent manner	about 50%	further enhanced	completely suppressed	not affected
